Experimental data from PubChem BioAssay (NCI).
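Briefly, cells in 96-well plates were exposed to five compound concentrations for 48 h, and endpoints were estimated by linear interpolation. GI50 = concentration required for 50% inhibition of growth. Definition used: TGI = concentration required for complete inhibition of growth.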

Legend:
Test in all cases: growth of human tumour cells (NCI), 48 h
SW-620 colon = tested on: SW-620 colon
A549 NSCLC = tested on: A549 NSCLC
UACC-257 melanoma = tested on: UACC-257 melanoma
HCT-116 colon = tested on: HCT-116 colon
KM12 colon = tested on: KM12 colon
IGROV1 ovarian = tested on: IGROV1 ovarian
LOX IMVI melanoma = tested on: LOX IMVI melanoma
UO-31 renal = tested on: UO-31 renal
HOP-92 NSCLC = tested on: HOP-92 NSCLC
MDA-MB-435 = tested on: MDA-MB-435
PC-3 prostate = tested on: PC-3 prostate
MOLT-4 leukemia = tested on: MOLT-4 leukemia
NCI-H226 lung = tested on: NCI-H226 lung
SK-MEL-28 melanoma = tested on: SK-MEL-28 melanoma
MCF7 breast = tested on: MCF7 breast
ACHN renal = tested on: ACHN renal
CCRF-CEM leukemia = tested on: CCRF-CEM leukemia
HT29 colon = tested on: HT29 colon
T-47D breast = tested on: T-47D breast
MALME-3M melanoma = tested on: MALME-3M melanoma
HL-60(TB) leukemia = tested on: HL-60(TB) leukemia
EKVX NSCLC = tested on: EKVX NSCLC
U251 CNS = tested on: U251 CNS
UACC-62 melanoma = tested on: UACC-62 melanoma
NCI-H522 lung = tested on: NCI-H522 lung
OVCAR-4 ovarian = tested on: OVCAR-4 ovarian
MDA-MB-231 breast = tested on: MDA-MB-231 breast
NCI/ADR-RES ovarian = tested on: NCI/ADR-RES ovarian
RPMI-8226 leukemia = tested on: RPMI-8226 leukemia

Work on O=C(Nc1cccc(Cl)c1)Nc1nc2ccc([N+](=O)[O-])cc2s1 yielded a GI50 (SW-620 colon) of 490 nM, a TGI (SW-620 colon) of 2390 nM and a GI50 (A549 NSCLC) of 779 nM. The TGI (A549 NSCLC) was 7460 nM, the GI50 (UACC-257 melanoma) was 532 nM and the TGI (UACC-257 melanoma) was 3490 nM. The GI50 (HCT-116 colon) was 330 nM, the TGI (HCT-116 colon) was 1190 nM and the GI50 (KM12 colon) was 466 nM. It also gave a TGI (KM12 colon) of 2120 nM, a GI50 (IGROV1 ovarian) of 617 nM and a TGI (IGROV1 ovarian) of 3880 nM. It also gave a GI50 (LOX IMVI melanoma) of 436 nM, a TGI (LOX IMVI melanoma) of 1630 nM and a GI50 (UO-31 renal) of 388 nM. For the same compound, the TGI (UO-31 renal) was 1790 nM, the GI50 (HOP-92 NSCLC) was 145 nM and the TGI (HOP-92 NSCLC) was 454 nM. It also gave a GI50 (MDA-MB-435) of 524 nM, a TGI (MDA-MB-435) of 2290 nM and a GI50 (PC-3 prostate) of 317 nM. The TGI (PC-3 prostate) was 1190 nM, the GI50 (MOLT-4 leukemia) was 375 nM and the TGI (MOLT-4 leukemia) was 2340 nM. The GI50 (NCI-H226 lung) was 623 nM, the TGI (NCI-H226 lung) was 2500 nM and the GI50 (SK-MEL-28 melanoma) was 423 nM. For the same compound, the TGI (SK-MEL-28 melanoma) was 1670 nM, the GI50 (MCF7 breast) was 452 nM and the TGI (MCF7 breast) was 3050 nM. For the same compound, the GI50 (ACHN renal) was 525 nM, the TGI (ACHN renal) was 2560 nM and the GI50 (CCRF-CEM leukemia) was 375 nM. For the same compound, the TGI (CCRF-CEM leukemia) was 3820 nM, the GI50 (HT29 colon) was 2820 nM and the TGI (HT29 colon) was 10700 nM. It also gave a GI50 (T-47D breast) of 307 nM, a TGI (T-47D breast) of 1850 nM and a GI50 (MALME-3M melanoma) of 367 nM. The TGI (MALME-3M melanoma) was 1630 nM, the GI50 (HL-60(TB) leukemia) was 365 nM and the TGI (HL-60(TB) leukemia) was 1510 nM. It also gave a GI50 (EKVX NSCLC) of 558 nM, a TGI (EKVX NSCLC) of 3540 nM and a GI50 (U251 CNS) of 452 nM. It also gave a TGI (U251 CNS) of 3550 nM, a GI50 (UACC-62 melanoma) of 359 nM and a TGI (UACC-62 melanoma) of 1460 nM. It also gave a GI50 (NCI-H522 lung) of 331 nM, a TGI (NCI-H522 lung) of 2010 nM and a GI50 (OVCAR-4 ovarian) of 429 nM. For the same compound, the TGI (OVCAR-4 ovarian) was 2930 nM, the GI50 (MDA-MB-231 breast) was 676 nM and the TGI (MDA-MB-231 breast) was 3050 nM. It also gave a GI50 (NCI/ADR-RES ovarian) of 403 nM, a TGI (NCI/ADR-RES ovarian) of 1820 nM and a GI50 (RPMI-8226 leukemia) of 263 nM. The TGI (RPMI-8226 leukemia) was 632 nM.
